The results in this text go back to patent US8795977B2, “Method for screening a potential modulator compound of a taste receptor” (Conopco, Inc., priority 2009, dated 2014).

This test deals with Control cells (no T1R1/T1R3). Nature of the test: Calcium-based receptor assay in control cells not expressing the receptor. It counts as cell-based, human. The note with it: change in fluorescence (ΔF). The source says:
We developed a unique functional umami receptor assay to evaluate and quantify umami in tomato and other crude plant or food extracts using the BRET technique: to test the principle we used the donor and acceptor proteins relating to BRET-2. In short, the human T1R1 and T1R3 taste receptors were cloned and fused with Renilla luciferase (Rluc) as donor protein; green fluorescent protein-2 (GFP2) served as acceptor protein and was fused to β-arrestin-2. Both constructs were transfected into a HEK293 cell line cells) for heterologous expression of the proteins. Various mammalian cell lines have been reported to be highly suitable for expression of receptors or other proteins, with HEK293 (human embryonic kidney) cells and CHO (Chinese hamster ovary) cells being some of the most versatile and suitable ones^12. Similarly, GPCRs can be expressed in various ways as described in multiple publications, such as transient^6, 8, 13-15 or stable (constitutive or inducible)^6, 9, 16, 17 expression, depending on the nature of the experiment, the respective receptor or the available time. Upon receptor stimulation with an agonist or crude extracts, the β-arrestin-2/GFP-2 protein interacts with the activated receptor thus bringing GFP-2 in close proximity with luciferase, making energy transfer between these two proteins possible and generating a BRET signal. In the presence of oxygen the luciferase catalyses the transformation of the substrate DeepBlueC into coelenteramide, which can be measured at 395-410 nm. If GFP-2 is in close proximity to the luciferase and energy transfer takes place, the emission will shift to 510 nm; this is referred to as the BRET signal and is expressed as ratio between the acceptor (GFP-2) and the donor (Renilla luciferase). The following experiments are designed to illustrate that conventional calcium-based functional receptor assays are not suitable for measuring the effects of crude extracts; in contrast, the BRET assay (as indicated here with umami) can clearly measure specific receptor responses using crude natural extracts. Moreover, the assay is also sensitive enough for detecting differences of receptor activation between the different tomato samples. Materials & Methods: Chemicals and Media: Fluo-4 AM was from Molecular Probes (# F-14202, prepared as 5 mM stock in DMSO), DMEM (with 4.5 g/l glucose and ultraglutamine, # BE12-604F) was from Lonza, trypsin-EDTA, Lipofectamine 2000, OptiMem and FCS were obtained from Life Technologies Invitrogen. Monosodium glutamate (MSG), Inosine 5′-monophosphate as well as all other chemicals were from Sigma-Aldrich. The plasmid encoding GFP2-β-arrestin-2 was purchased from BioSignal Packard (#6310176). Coelenterazine 400A (a DeepBlueC derivative) and Coelenterazine-H were from VWR International (# BTIU10125-1 and 233903-50, respectively). All other cell culture supplies were from Greiner BioOne. Receptor Fusion Constructs, Cell Lines, and Media: The human T1R1 and human T1R3 umami receptors were fused at their C-terminal in frame to Renilla Luciferase (Rluc) using standard molecular cloning techniques and the codon-humanized pRluc-N3 vector from PerkinElmer (#6310220). For expression of the umami receptors and the construct encoding GFP-2/β-arrestin-2, HEK293 cells (human embryonic kidney cells, ATCC) were used using traditional transfection methods (see also below). HEK293 cells were maintained in DMEM and 10% FBS at 37° C./5% CO2. Tomato Extracts: The tomato extracts which served as representative natural, complex test material were prepared as follows: Frozen tomato samples (in −80° C.) were weighed and dissolved in an equal amount of water. After the seeds and locular tissues (pulp) were removed and put aside, the tomato pericarp (flesh) was ground using a mortar and pestle. The seeds and pulp were then added back to the mixture ensuring that they are well mixed and the seeds were not crushed. […]

In the case of `N[C@@H](CCC(=O)O)C(=O)[O-].[Na+]` [MSG, Monosodium glutamate], under “100 μM MSG”, the “release of intracellular calcium, Control cells (no T1R1/T1R3), average” value is on record as 1135; the “release of intracellular calcium, Control cells (no T1R1/T1R3), meas. 1” value is 1102; the “release of intracellular calcium, Control cells (no T1R1/T1R3), meas. 2” value was 1168. Further, for the setting “1 mM MSG”, the “release of intracellular calcium, Control cells (no T1R1/T1R3), average” value is on record as 1060; the “release of intracellular calcium, Control cells (no T1R1/T1R3), meas. 1” value worked out at 1100; the “release of intracellular calcium, Control cells (no T1R1/T1R3), meas. 2” value stood at 1020. For the setting “10 mM MSG”, the “release of intracellular calcium, Control cells (no T1R1/T1R3), average” value is listed as 1115; the “release of intracellular calcium, Control cells (no T1R1/T1R3), meas. 1” value stood at 1200; the “release of intracellular calcium, Control cells (no T1R1/T1R3), meas. 2” value is recorded as 1030.
